The source of these data is patent publication US20240279190A1, “COMPOUNDS FOR MODULATING PLATELET-TYPE 12-(S)-LIPOXYGENASE AND METHODS OF USE FOR SAME” (The Regents of The University of California, priority 2021, published 2024).

In assay [1] the target is T1, 12-LOX mutant A417I/V418M/S594T (Homo sapiens, UniProt P18054, A417I/S594T/V418M).
T1 construct: 6xHis (N); made in house; pFastBac1 shuttle vector
T1 sequence (P18054 1-663 A417I/V418M/S594T): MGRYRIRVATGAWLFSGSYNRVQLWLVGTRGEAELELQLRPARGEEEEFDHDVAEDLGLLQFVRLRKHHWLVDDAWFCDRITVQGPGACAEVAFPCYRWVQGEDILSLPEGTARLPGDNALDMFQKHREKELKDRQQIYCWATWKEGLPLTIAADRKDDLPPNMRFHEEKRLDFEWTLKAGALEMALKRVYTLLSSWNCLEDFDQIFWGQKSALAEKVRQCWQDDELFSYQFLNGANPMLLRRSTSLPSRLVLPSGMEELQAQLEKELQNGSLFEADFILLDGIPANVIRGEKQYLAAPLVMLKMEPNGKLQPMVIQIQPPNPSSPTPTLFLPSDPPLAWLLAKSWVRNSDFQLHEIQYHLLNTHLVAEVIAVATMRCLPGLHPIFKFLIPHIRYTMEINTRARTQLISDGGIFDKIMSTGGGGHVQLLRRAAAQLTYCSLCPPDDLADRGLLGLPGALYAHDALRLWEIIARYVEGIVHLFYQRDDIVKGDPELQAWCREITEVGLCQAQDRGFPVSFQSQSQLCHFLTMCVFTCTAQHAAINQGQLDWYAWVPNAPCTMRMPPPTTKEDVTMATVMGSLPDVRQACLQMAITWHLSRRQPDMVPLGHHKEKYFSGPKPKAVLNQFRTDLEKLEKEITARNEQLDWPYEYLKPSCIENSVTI
The experiment in a line: UV-Vis-based IC50 assay, A417I/V418M/S594T mutant. It counts as biochemical. An excerpt: Based on the ML355 binding mode predicted by the modeling, all residues within 5 Å of any atom of ML355 were selected for experimental mutagenesis. The selected residues were replaced with amino acids with either bulkier or smaller side chains in order to determine what specific interactions play a role in inhibitor binding. […] The numbering refers to the UniProt accession number P18054 sequence, with the N-terminal methionine assigned as amino acid number one. The primers for all mutants were designed using the online QuikChange Primer Design tool (http://www.genomics.agilent.com/primerDesignProgram.jsp) from Agilent Technologies (CA, USA). The mutations were introduced by using the QuikChange® II XL site-directed mutagenesis kit from Agilent, following the instructions in the protocol provided. […]
The wild type 12-LOX (wt-12-LOX) enzyme and its mutants were expressed as fusion proteins, with an N-terminal 6×His tag, and were affinity purified by nickel-iminodiacetic acid agarose using FPLC (Biorad).
The percent inhibition was determined by comparing the enzyme rates of the control (DMSO solvent) and the inhibitor sample by following the formation of the conjugated diene product at 234 nm (ε=25,000 M^−1cm^−1). […] The substrate concentration was quantitatively determined by allowing the enzymatic reaction to go to completion in the presence of soybean LOX-1. […]

In a further assay the test system is human islets. The experiment in a line: Glucose stimulated insulin secretion (GSIS) of human islets treated with PIC. It counts as cell-based. As for the experimental part: Human islets from nondiabetic donors were received from the Integrated Islet Distribution Program or Prodo Laboratories (Aliso Viejo, CA) (Table 1). Characteristics of islets and donors are summarized in the below table. Islets were incubated in CMRL-1066 medium supplemented with 10% fetal bovine serum and 1% Pen-Strept overnight at 37° C. in 5% CO2 for recovery from shipment. On the next day, islets were transferred to CMRL-1066 supplemented with 5% fetal bovine serum and 1% Pen-Strept. A portion of the islets were randomly selected and incubated with a mixture of human PICs, […] tumor necrosis factor α, […] interferon-γ, and […] IL-1β (all from BD Biosciences, San Jose, CA) in the presence or absence of 1 μmol/L compound LOX-12-001. Compound LOX-12-001 was added 30 minutes before the addition of pro-inflammatory cytokines (PIC).
Use of Krebs-Ringer buffer (KRB) for glucose-stimulated insulin secretion (GSIS) was previously published. For batch assays, islets treated with PIC in the presence or absence of compound LOX-12-001 (1 μM) for 24 hours were transferred to KRB without glucose and were incubated for 1 hour at 37° C. in 5% CO2 in the absence of PIC and compound LOX-12-001. Thereafter, 50 islet equivalents (IEQs) per well were transferred to six-well plates filled with 1 mL of KRB containing 3 mmol/L or 18 mmol/L of glucose and were incubated for 1 hour at 37° C. in 5% CO2. Each condition was performed in triplicate. After incubation, supernatant was collected for determination of insulin secretion by human insulin enzyme-linked immunosorbent assay (Mercodia, Winston-Salem, NC).
Data are presented as mean±standard error of the mean and were analyzed using Two-way Annova analysis of variance Sidak's multiple comparison test (Prism software, Irvine, CA) as indicated in each figure. P<0.05 was considered significant.

Each structure is given as a SMILES string.

One may read the IC50 as the midpoint of a concentration-inhibition curve. A word on the inhibition: it is the relative decrease from the control value, in per cent. The compound `COc1cccc(CNc2ccc(S(=O)(=O)Nc3nc4c(ccc5ccccc54)s3)cc2)c1O` [Compound LOX-12-001, 4-((2-hydroxy-3-methoxybenzyl)amino)-N-(naphtho[1,2-d]thiazol-2-yl)benzenesulfonamide] yielded an IC50 in assay [1] greater than 20 µM. Besides, the inhibition at 20 µM in assay [1] (20 uM inhibitor, read-out: Percent inhibition at 20 uM inhibitor) was found to be 44%. For the same compound, the insulin secretion in the assay on human islets (3 mmol/L glucose, PIC plus 1 μM compound for 24 hrs) is 140+/−3 mU/L; in the assay with human islets (3 mmol/L glucose, compound only (1 μM), no PIC) it was 25+/−5 mU/L; with human islets (18 mmol/L glucose, PIC plus 1 μM compound for 24 hrs), 352+/−10 mU/L; with human islets (18 mmol/L glucose, compound only (1 μM), no PIC) it was 128+/−13 mU/L.
